Data reported in US20170152258A9, “Substituted Pyridopyrazines as Syk Inhibitors” (HUTCHISON MEDIPHARMA LIMITED, priority 2012, published 2017).

Tests used:
[1] = molecular target: Syk kinase (Homo sapiens, UniProt P43405); assay: SYK Enzymatic Assay (Z-LYTE Tyr 2 peptide); format: biochemical; details: 8 concentrations 1 μM down to 0.0003 μM
Procedure, shortened: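 Z-LYTE format using Tyr 2 peptide. After the 1 h room-temperature kinase reaction, development reagent was added for 1 h, then stop reagent. Fluorescence was read at 445 and 520 nm. Compounds were tested at 8 concentrations, 1 μM down to 0.0003 μM (1:3 dilutions).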

[2] = tested on: RBL-2H3 cells; assay: IgE-induced Beta-hexosaminidase secretion in RBL-2H3 cells; format: cell-based; details: Rattus norvegicus, DNP-BSA stimulation
Procedure, shortened: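 RBL-2H3 cells sensitized overnight with 0.5 ug/ml SPE-7 IgE, washed, preincubated with compound 20 min at 37° C, then stimulated with DNP-BSA (150 ng/mL stock) for 45 min. Released β-hexosaminidase measured on supernatant with 1 mM 4-nitrophenyl N-acetyl-β-D-glucosaminide, pH 4.5, 1.5 hr at 37° C; absorbance 405 nm after carbonate quench.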

[3] = RBL-2H3, IgE-induced Beta-hexosaminidase secretion

CN(C)c1ccc(-c2cc3nccnc3c(OC[C@@H]3CN(C(N)=O)CCO3)n2)cc1Cl [Compound 165]
IC50 [1]: 48 nM | IC50 [2, 3]: 95 nM

CNc1ccc(-c2cc3nccnc3c(OC[C@@H]3CN(C(=O)[C@H]4CCOC4)CCO3)n2)cc1 [Compound 50]
IC50 [1]: 64 nM | IC50 [2, 3]: 108 nM

COc1cc(-c2cc3nccnc3c(OC[C@@H]3CN(S(C)(=O)=O)CCO3)n2)ccc1OCCN(C)C [Compound 126]
IC50 [1]: 41 nM | IC50 [2, 3]: 366 nM

CC(=O)N1CCO[C@H](COc2nc(-c3ccc(C(C)(C)C)cc3)cc3nccnc23)C1 [Compound 254]
IC50 [1]: 55 nM | IC50 [2, 3]: 99 nM

CC(C)(O)Cc1ccc(-c2cc3nccnc3c(OC[C@@H]3CN(S(C)(=O)=O)CCO3)n2)cc1 [Compound 273]
IC50 [1]: 85 nM | IC50 [2, 3]: 176 nM

Cc1nccn1CCS(=O)(=O)N1CCO[C@H](COc2nc(-c3ccc(N(C)C)cc3)cc3nccnc23)C1 [Compound 101, (S)—N,N-dimethyl-4-(5-((4-(2-(2-methyl-1H-imidazol-1-yl)ethylsulfonyl)morpholin-2-yl)methoxy)pyrido[4,3-b]pyrazin-7-yl)aniline]
IC50 [1]: 52 nM | IC50 [2, 3]: 503 nM

CN(C)c1ccc(-c2cc3nccnc3c(OC[C@@H]3CN(C(=O)C4CCCC4)CCO3)n2)cc1 [Compound 98]
IC50 [1]: 55 nM | IC50 [2, 3]: 230 nM

CC(C)(C#N)c1ccc(-c2cc3nccnc3c(OC[C@@H]3CN(S(C)(=O)=O)CCO3)n2)cc1 [Compound 212]
IC50 [1]: 17 nM | IC50 [2, 3]: 30 nM

CC(=O)N(C)Cc1ccc(-c2cc3nccnc3c(OC[C@@H]3CN(S(C)(=O)=O)CCO3)n2)cc1 [Compound 259]
IC50 [1]: 54 nM | IC50 [2, 3]: 297 nM

CNC(=O)N1CCO[C@H](COc2nc(-c3ccc(C(C)(C)O)cc3)cc3nccnc23)C1 [Compound 264]
IC50 [1]: 38 nM | IC50 [2, 3]: 339 nM

CCC(=O)N1CCO[C@H](COc2nc(-c3ccc(N(C)C)c(C)c3)cc3nccnc23)C1 [Compound 202]
IC50 [1]: 26 nM | IC50 [2, 3]: 90 nM

CC(=O)N1CCN(c2ccc(-c3cc4nccnc4c(O[C@@H]4CCCOC4)n3)cc2)CC1 [Compound 177]
IC50 [1]: 91 nM | IC50 [2, 3]: 79 nM

CN(C)c1ccc(-c2cc3nccnc3c(OC[C@@H]3CN(S(C)(=O)=O)CCO3)n2)cc1Cl [Compound 108]
IC50 [1]: 19 nM | IC50 [2, 3]: 52 nM

CNc1ccc(-c2cc3nccnc3c(OC[C@@H]3CN(S(C)(=O)=O)CCO3)n2)cc1 [Compound 36]
IC50 [1]: 55 nM | IC50 [2, 3]: 97 nM

CC1(C)OCc2cc(-c3cc4nccnc4c(OC[C@@H]4CN(S(C)(=O)=O)CCO4)n3)ccc21 [Compound 299]
IC50 [1]: 14 nM | IC50 [2, 3]: 47 nM

CN(C)c1ccc(-c2cc3nccnc3c(OC[C@@H]3CN(C(=O)CCC#N)CCO3)n2)cc1 [Compound 77]
IC50 [1]: 85 nM | IC50 [2, 3]: 202 nM

CN(C)c1ccc(-c2cc3nccnc3c(OC[C@@H]3CN(C(=O)C4CC4)CCO3)n2)cc1 [Compound 69]
IC50 [1]: 39 nM | IC50 [2, 3]: 62 nM

NS(=O)(=O)N1CCO[C@H](COc2nc(-c3ccc(C4CCOCC4)cc3)cc3nccnc23)C1 [Compound 260]
IC50 [1]: 24 nM | IC50 [2, 3]: 135 nM

OCCN1CCC(c2ccc(-c3cc4nccnc4c(O[C@@H]4CCOC4)n3)cc2)CC1 [Compound 227]
IC50 [1]: 37 nM | IC50 [2, 3]: 70 nM

CC(C)C(=O)N1CCO[C@H](COc2nc(-c3ccc(N(C)C)cc3)cc3nccnc23)C1 [Compound 68]
IC50 [1]: 63 nM | IC50 [2, 3]: 110 nM

O=C(C(F)F)N1CCO[C@H](COc2nc(-c3ccc(N4CCNCC4)cc3)cc3nccnc23)C1 [Compound 6, (S)-2,2-difluoro-1-(2-((7-(4-(piperazin-1-yl)phenyl)pyrido[4,3-b]pyrazin-5-yloxy)methyl)morpholino)ethanone]
IC50 [1]: 34 nM | IC50 ([2]; IgE-induced Beta-hexosaminidase secretion): 260 nM

CN(C)c1ccc(-c2cc3nccnc3c(OC[C@@H]3CN(S(C)(=O)=O)CCO3)n2)cc1F [Compound 53]
IC50 [1]: 32 nM | IC50 [2, 3]: 37 nM

CS(=O)(=O)N1CCN(c2ccc(-c3cc4nccnc4c(OC[C@@H]4CN(S(C)(=O)=O)CCO4)n3)cc2)CC1 [Compound 26]
IC50 [1]: 18 nM | IC50 [2, 3]: 113 nM

CC(C)c1ccc(-c2cc3nccnc3c(OC[C@@H]3CN(C(=O)CO)CCO3)n2)cc1 [Compound 195]
IC50 [1]: 63 nM | IC50 [2, 3]: 129 nM

CC(=O)N1CCO[C@H](COc2nc(-c3ccc(N(C)C)cc3)cc3nccnc23)C1 [Compound 67]
IC50 [1]: 52 nM | IC50 [2, 3]: 89 nM

CCN(CC)c1ccc(-c2cc3nccnc3c(OC[C@@H]3CN(C(C)=O)CCO3)n2)cc1 [Compound 131]
IC50 [1]: 28 nM | IC50 [2, 3]: 39 nM

CCN(CC)c1ccc(-c2cc3nccnc3c(OC[C@@H]3CN(S(C)(=O)=O)CCO3)n2)cc1 [Compound 119]
IC50 [1]: 16 nM | IC50 [2, 3]: 34 nM

CNS(=O)(=O)N1CCO[C@H](COc2nc(-c3ccc(N4CCOCC4)cc3)cc3nccnc23)C1 [Compound 55]
IC50 [1]: 65 nM | IC50 [2, 3]: 144 nM

Cn1ncc2cc(-c3cc4nccnc4c(OC[C@@H]4CN(S(C)(=O)=O)CCO4)n3)ccc21 [Compound 105]
IC50 [1]: 39 nM | IC50 [2, 3]: 77 nM

CN1CCc2cc(-c3cc4nccnc4c(OC[C@@H]4CN(C(N)=O)CCO4)n3)ccc21 [Compound 216]
IC50 [1]: 49 nM | IC50 [2, 3]: 122 nM

NS(=O)(=O)N1CCO[C@H](COc2nc(-c3ccc(N4CCC(F)(F)CC4)cc3)cc3nccnc23)C1 [Compound 29]
IC50 [1]: 66 nM | IC50 [2, 3]: 106 nM

CC(C)(C)c1ccc(-c2cc3nccnc3c(OC[C@@H]3CN(S(C)(=O)=O)CCO3)n2)cc1 [Compound 256]
IC50 [1]: 36 nM | IC50 [2, 3]: 92 nM

CC(=O)N1CCO[C@H](COc2nc(-c3ccc(N(C)C)c(C)c3)cc3nccnc23)C1 [Compound 158]
IC50 [1]: 30 nM | IC50 [2, 3]: 32 nM

COC1CCN(c2ccc(-c3cc4nccnc4c(OC[C@@H]4CN(S(C)(=O)=O)CCO4)n3)cc2)CC1 [Compound 31]
IC50 [1]: 17 nM | IC50 [2, 3]: 56 nM

CS(=O)(=O)N1CCO[C@H](COc2nc(-c3ccc4c(c3)OCCO4)cc3nccnc23)C1 [Compound 109]
IC50 [1]: 97 nM | IC50 [2, 3]: 131 nM

CN(C)c1ccc(-c2cc3nccnc3c(OC[C@@H]3CNC(=O)C3)n2)cc1 [Compound 206, (S)-4-(((7-(4-(dimethylamino)phenyl)pyrido[3,4-b]pyrazin-5-yl)oxy)methyl)pyrrolidin-2-one]
IC50 [1]: 72 nM | IC50 [2, 3]: 52 nM

Cc1cc(-c2cc3nccnc3c(OC[C@@H]3CNC(=O)C3)n2)ccc1N(C)C [Compound 226]
IC50 [1]: 29 nM | IC50 [2, 3]: 60 nM
